Reference: PubChem BioAssay AID1259407 (Chemical Carcinogenesis Research Information System (CCRIS), 2018)
Activity calls are given as the source filed them. The rule behind the calls is not given here.

Tested on: CCRIS mutagenicity, Ames/micronucleus/aberration tests
Assay: CCRIS mutagenicity studies
[1] = Test System: AMES SALMONELLA TYPHIMURIUM, Strain/Indicator: TA97, Metabolic Activation: NONE, Method: STANDARD PLATE
[2] = Test System: AMES SALMONELLA TYPHIMURIUM, Strain/Indicator: TA98, Metabolic Activation: NONE, Method: STANDARD PLATE
[3] = Test System: AMES SALMONELLA TYPHIMURIUM, Strain/Indicator: TA100, Metabolic Activation: NONE, Method: STANDARD PLATE

For `C=C(Cl)Cl`, the mutagenic call (End Point: IN VITRO CHROMOSOMAL ABERRATIONS, Test System: CHINESE HAMSTER LUNG (CHL), Metabolic Activation: NONE) was “inactive; negative”, the mutagenic call (End Point: IN VITRO CHROMOSOMAL ABERRATIONS, Test System: CHINESE HAMSTER LUNG (CHL), Metabolic Activation: RAT. LIVER, S-9, KC-400) was “active; positive” and the mutagenic call (End Point: IN VIVO MICRONUCLEUS, Test System: BONE MARROW POLYCHROMATIC ERYTHROCYTES, Species: MOUSE, Strain/Sex: DDY/MALE, Route: GAVAGE (ORAL) ONCE) was “inactive; negative”. For the same molecule, the mutagenic call (End Point: IN VIVO MICRONUCLEUS, Test System: BONE MARROW POLYCHROMATIC ERYTHROCYTES, Species: MOUSE, Strain/Sex: DDY/MALE, Route: GAVAGE (ORAL), 4 DOSES AT 24 HR INTERVALS) was “inactive; negative”, the mutagenic call (End Point: IN VIVO MICRONUCLEUS, Test System: MICRONUCLEATED POLYCHROMATIC ERYTHROCYTES, Species: MOUSE, Strain/Sex: ICR/FEMALE (PREGNANT), Route: IP INJECTION ON 18 D OF GESTATION) was “inactive; negative” and the mutagenic call (Test System: AMES SALMONELLA TYPHIMURIUM, Strain/Indicator: RSJ100, Metabolic Activation: NONE, Method: VAPOR PHASE) was “inactive; negative”. The mutagenic call [1] was “inactive; negative”, the mutagenic call (Test System: AMES SALMONELLA TYPHIMURIUM, Strain/Indicator: TA97, Metabolic Activation: RAT, LIVER, S-9, AROCLOR 1254, Method: STANDARD PLATE) was “active; positive” and the mutagenic call [2] was “inactive; negative”. The mutagenic call (Test System: AMES SALMONELLA TYPHIMURIUM, Strain/Indicator: TA98, Metabolic Activation: RAT, LIVER, S-9, AROCLOR 1254, Method: STANDARD PLATE) was “active; positive”, the mutagenic call (Test System: AMES SALMONELLA TYPHIMURIUM, Strain/Indicator: TA98, Metabolic Activation: RAT, LIVER, S-9, PCB, Method: GAS EXPOSURE) was “inactive; negative” and the mutagenic call (Test System: AMES SALMONELLA TYPHIMURIUM, Strain/Indicator: TA100, Metabolic Activation: MOUSE, LIVER, S-9, PHENOBARBITAL, Method: DESICCATOR) was “active; positive”. The mutagenic call [3] was “active; positive”, the mutagenic call (Test System: AMES SALMONELLA TYPHIMURIUM, Strain/Indicator: TA100, Metabolic Activation: RAT, LIVER, S-9, AROCLOR 1254, Method: DESICCATOR) was “active; positive” and the mutagenic call (Test System: AMES SALMONELLA TYPHIMURIUM, Strain/Indicator: TA100, Metabolic Activation: RAT, LIVER, S-9, AROCLOR 1254, Method: STANDARD PLATE) was “active; positive”. For the same molecule, the mutagenic call (Test System: AMES SALMONELLA TYPHIMURIUM, Strain/Indicator: TA100, Metabolic Activation: RAT, LIVER, S-9, PCB, Method: GAS EXPOSURE) was “active; positive”, the mutagenic call (Test System: AMES SALMONELLA TYPHIMURIUM, Strain/Indicator: TA100, Metabolic Activation: RAT, LIVER, S-9, PHENOBARBITAL, Method: DESICCATOR) was “active; positive” and the mutagenic call (Test System: AMES SALMONELLA TYPHIMURIUM, Strain/Indicator: TA104, Metabolic Activation: NONE, Method: STANDARD PLATE) was “inactive; negative”. For the same molecule, the mutagenic call (Test System: AMES SALMONELLA TYPHIMURIUM, Strain/Indicator: TA104, Metabolic Activation: RAT, LIVER, S-9, AROCLOR 1254, Method: STANDARD PLATE) was “inactive; negative”, the mutagenic call (Test System: AMES SALMONELLA TYPHIMURIUM, Strain/Indicator: TA1530, Metabolic Activation: MOUSE, LIVER, S-9, PHENOBARBITAL, Method: DESICCATOR) was “active; positive” and the mutagenic call (Test System: AMES SALMONELLA TYPHIMURIUM, Strain/Indicator: TA1535, Metabolic Activation: HAMSTER, LIVER, S-9, AROCLOR 1254, Method: DESICCATOR) was “active; positive”. The mutagenic call (Test System: AMES SALMONELLA TYPHIMURIUM, Strain/Indicator: TA1535, Metabolic Activation: MOUSE, KIDNEY, S-9, Method: DESICCATOR) was “active; positive”, the mutagenic call (Test System: AMES SALMONELLA TYPHIMURIUM, Strain/Indicator: TA1535, Metabolic Activation: MOUSE, LIVER, S-9, AROCLOR 1254, Method: DESICCATOR) was “active; positive” and the mutagenic call (Test System: AMES SALMONELLA TYPHIMURIUM, Strain/Indicator: TA1535, Metabolic Activation: RAT, LIVER, S-9, AROCLOR 1254, Method: DESICCATOR) was “active; positive”. The mutagenic call (Test System: AMES SALMONELLA TYPHIMURIUM, Strain/Indicator: TA1535, Metabolic Activation: RAT, LIVER, S-9, PCB, Method: GAS EXPOSURE) was “active; positive”, the mutagenic call (Test System: AMES SALMONELLA TYPHIMURIUM, Strain/Indicator: TA1535, Metabolic Activation: RAT, LIVER, S-9, PHENOBARBITAL, Method: DESICCATOR) was “active; positive” and the mutagenic call (Test System: AMES SALMONELLA TYPHIMURIUM, Strain/Indicator: TA1537, Metabolic Activation: RAT, LIVER, S-9, PCB, Method: GAS EXPOSURE) was “inactive; negative”. The mutagenic call (Test System: AMES SALMONELLA TYPHIMURIUM, Strain/Indicator: TA1538, Metabolic Activation: RAT, LIVER, S-9, PCB, Method: GAS EXPOSURE) was “inactive; negative”, the mutagenic call (Test System: AMES SALMONELLA TYPHIMURIUM, Strain/Indicator: TA2637, Metabolic Activation: RAT, LIVER, S-9, PCB, Method: GAS EXPOSURE) was “inactive; negative” and the mutagenic call (Test System: AMES SALMONELLA TYPHIMURIUM, Strain/Indicator: TPT100, Metabolic Activation: NONE, Method: VAPOR PHASE) was “active; positive”. The mutagenic call (Test System: E. COLI, Strain/Indicator: WP2 UVRA (PKM101), Metabolic Activation: RAT, LIVER, S-9, PCB, Method: GAS EXPOSURE) was “active; positive”, the mutagenic call (Test System: E. COLI, Strain/Indicator: WP2 UVRA, Metabolic Activation: RAT, LIVER, S-9, PCB, Method: GAS EXPOSURE) was “active; positive” and the mutagenic call (Test System: MOUSE LYMPHOMA, Strain/Indicator: L5178Y (TK+/TK-), Metabolic Activation: NONE, Method: SUSPENSION/PLATE) was “inactive; negative”. For the same molecule, the mutagenic call (Test System: MOUSE LYMPHOMA, Strain/Indicator: L5178Y (TK+/TK-), Metabolic Activation: RAT, LIVER, S-9, Method: SUSPENSION/PLATE) was “active; positive”.

For `CC1COCc2cc3c(cc21)C(C)(C)C(C)C3(C)C` (configuration not stated), the mutagenic call [1] was “inactive; negative”, the mutagenic call (Test System: AMES SALMONELLA TYPHIMURIUM, Strain/Indicator: TA97, Metabolic Activation: RAT LIVER S-9, AROCLOR 1254, Method: STANDARD PLATE) was “inactive; negative” and the mutagenic call [2] was “inactive; negative”. For the same molecule, the mutagenic call (Test System: AMES SALMONELLA TYPHIMURIUM, Strain/Indicator: TA98, Metabolic Activation: RAT LIVER S-9,AROCLOR 1254, Method: STANDARD PLATE) was “inactive; negative”, the mutagenic call [3] was “inactive; negative” and the mutagenic call (Test System: AMES SALMONELLA TYPHIMURIUM, Strain/Indicator: TA100, Metabolic Activation: RAT LIVER S-9, AROCLOR 1254, Method: STANDARD PLATE) was “inactive; negative”. The mutagenic call (Test System: AMES SALMONELLA TYPHIMURIUM, Strain/Indicator: TA102, Metabolic Activation: NONE, Method: STANDARD PLATE) was “inactive; negative”, the mutagenic call (Test System: AMES SALMONELLA TYPHIMURIUM, Strain/Indicator: TA102, Metabolic Activation: RAT LIVER S-9, AROCLOR 1254, Method: STANDARD PLATE) was “inactive; negative” and the mutagenic call (Test System: AMES SALMONELLA TYPHIMURIUM, Strain/Indicator: TA1535, Metabolic Activation: NONE, Method: STANDARD PLATE) was “inactive; negative”. The mutagenic call (Test System: AMES SALMONELLA TYPHIMURIUM, Strain/Indicator: TA1535, Metabolic Activation: RAT LIVER S-9, AROCLOR 1254, Method: STANDARD PLATE) was “inactive; negative”, the mutagenic call (Test System: AMES SALMONELLA TYPHIMURIUM, Strain/Indicator: TA1537, Metabolic Activation: NONE, Method: STANDARD PLATE) was “inactive; negative” and the mutagenic call (Test System: AMES SALMONELLA TYPHIMURIUM, Strain/Indicator: TA1537, Metabolic Activation: RAT LIVER S-9, AROCLOR 1254, Method: STANDARD PLATE) was “inactive; negative”. The mutagenic call (Test System: AMES SALMONELLA TYPHIMURIUM, Strain/Indicator: TA1538, Metabolic Activation: NONE, Method: STANDARD PLATE) was “inactive; negative”, the mutagenic call (Test System: AMES SALMONELLA TYPHIMURIUM, Strain/Indicator: TA1538, Metabolic Activation: RAT LIVER S-9, AROCLOR 1254, Method: STANDARD PLATE) was “inactive; negative” and the mutagenic call (Test System: ESCHERICHIA COLI, Strain/Indicator: WP2 UVR A, Metabolic Activation: NONE, Method: STANDARD PLATE) was “inactive; negative”. The mutagenic call (Test System: ESCHERICHIA COLI, Strain/Indicator: WP2 UVR A, Metabolic Activation: RAT LIVER S-9, AROCLOR 1254, Method: STANDARD PLATE) was “inactive; negative” and the mutagenic call (Test System: UDS RAT HEPATOCYTES, Metabolic Activation: NONE, Method: NET NUCLEAR GRAIN COUNT) was “inactive; negative”.

In the case of `Oc1ccc(O)c(-c2ccccc2)c1`, the mutagenic call (Test System: CHINESE HAMSTER V-79, Strain/Indicator: V-79 (HGPRT)/6-THIOGUANINE, Metabolic Activation: NONE) is reported as “inactive; negative”.
